From patent US5830909A (American Cyanamid Company, priority 1996, dated 1998)
Counter-ions that a name gives are not always drawn.

These molecules were tested against T1, AII receptor (Rattus norvegicus, UniProt P25095) (assay: Displacement of 125I[Sar,Ile]AII binding in rat epididymal fat cell membranes). Settings: Epididymal IC50 for displacement of 125I[Sar,Ile]AII binding, rat epididymal fat cell membranes (Table 8).
T1 construct: adipose tissue from the epididymal and retroperitoneal depots is quickly excised; from tissue; host or cells: membranes of collagenase-isolated adipocytes from epididymal and retroperitoneal fat of male Sprague-Dawley rats
T1 sequence (P25095 1-359): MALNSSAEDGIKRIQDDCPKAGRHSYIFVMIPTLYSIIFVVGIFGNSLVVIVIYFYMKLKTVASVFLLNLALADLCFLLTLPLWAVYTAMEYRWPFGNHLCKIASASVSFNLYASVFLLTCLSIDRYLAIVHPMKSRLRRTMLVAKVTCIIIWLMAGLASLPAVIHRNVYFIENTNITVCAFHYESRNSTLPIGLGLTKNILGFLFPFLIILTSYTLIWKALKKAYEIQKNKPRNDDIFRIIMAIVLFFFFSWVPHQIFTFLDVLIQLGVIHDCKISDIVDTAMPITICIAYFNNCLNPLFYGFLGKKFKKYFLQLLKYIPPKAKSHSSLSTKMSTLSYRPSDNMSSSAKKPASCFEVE
From the text: The experimental design involves determining the binding characteristics of adipocyte membranes harvested from two different anatomic sites at three different ages. Male Sprague-Dawley rats (Charles River Laboratories, Wilmington, Mass.) are used at 40, 70 and 100 days of age. Rats are killed by carbon dioxide inhalation on the morning of the experiment, and adipose tissue from the epididymal and retroperitoneal depots is quickly excised and placed in cold saline. The spermatic artery and vein are removed from the epididymal fat, and brown fat deposits are dissected away from the retroperitoneal depot. The adipose tissue is weighed, minced into small pieces, and approximately 10 g each transferred to a flask containing 25 ml of Krebs-Ringer-bicarbonate buffer (KRB), 6 mM glucose and 50 mg of collagenase, pH 7.4. […] Intact adipocytes dissociated from the tissue pass freely into waiting tubes, while the undigested tissue is trapped on the screen. The tubes containing the adipocytes are washed an additional 4× with 20 ml each of cold Tris buffer (10 mM Tris HCl, pH 8.0) by first allowing the adipocytes to separate from the digestion medium by flotation, removing the infranatant through polyethylene tubing attached to a syringe, resuspending the cells in the Tris buffer, and repeating this procedure. Adipocyte membranes used for binding studies are prepared as follows. […] Following centrifugation, the fat cake and supernatant are carefully removed, and the pellet resuspended in 1 ml of Tris buffer. Protein content of the high speed pellet is determined, the resuspended protein is either assayed immediately or stored at -75° before binding assays are performed. […] The assay is initiated by the addition of the membrane protein, followed by incubation at 22° C. for 30 minutes in a slowly shaking water bath. Separation of bound from free radioactivity is achieved using any appropriate filtration apparatus. We use either a Millipore or Brandel model harvesting apparatus containing a Durapore or Whatman GF/B filter, followed by 6 additional rinses with 5 ml each of cold saline. The filters are placed in tubes, and radioactivity measured in a gamma scintillation counter programmed to correct for the half-life of the isotope. Using this experimental protocol, both the affinity (KD) and number of binding sites (Bmax) for angiotensin II on the adipocyte membrane can be calculated. The relative affinities of different anatomically distinct adipocyte membranes for a variety of peptide and nonpeptide antagonists can also be determined. […] Concentration ranges can be altered dependent upon the affinity of the particular antagonist for the fat cell membrane receptor.
With `CCCCc1nc2ccc(C3(C(=O)OC)CC4CCCN4O3)cc2c(=O)n1Cc1ccc(-c2ccccc2-c2nnn[nH]2)cc1` (mixture of isomers) [trans-(+/-)-2-[2-butyl-3,4-dihydro-4-oxo-3-[[2'-(1H-tetrazol-5-yl)[1,1'-biphenyl]-4-yl]methyl]-6-quinazolinyl]hexahydropyrrolo[1,2-b]isoxazole-2-carboxylic acid methyl ester monohydro] the IC50 was 23.5 nM.
For `CCCCc1nc2ccc(C(C)(O)C3CCN(C)C3=O)cc2c(=O)n1Cc1ccc(-c2ccccc2-c2nn[nH]n2)cc1` (single isomer, unassigned) [2-butyl-6-[1-hydroxy-1-(1-methyl-2-oxo-3-pyrrolidinyl)ethyl]-3-[[2'-(1H-tetrazol-5-yl)[1,1'-biphenyl]-4-yl]methyl]-4(3H)-quinazolinone isomer 1], the IC50 was 7.9 nM.
Work on `CCCCc1nc2ccc(C(O)C3CCCS3(=O)=O)cc2c(=O)n1Cc1ccc(-c2ccccc2-c2nn[nH]n2)cc1` (single isomer, unassigned) [2-butyl-6-[hydroxy(tetrahydro-2-thienyl)methyl]-3-[[2'-(1H-tetrazol-5-yl)[1,1'-biphenyl]-4-yl]methyl]-4(3H)-quinazolinone S,S-dioxide isomer 1] yielded an IC50 of 1.68 nM.
Molecule `CCCCc1nc2ccc(C(O)C3CCCS3(=O)=O)cc2c(=O)n1Cc1ccc(-c2ccccc2-c2nn[nH]n2)cc1` (single isomer, unassigned) [2-butyl-6-[hydroxy(tetrahydro-2-thienyl)methyl]-3-[[2'-(1H-tetrazol-5-yl)[1,1'-biphenyl]-4-yl]methyl]-4(3H)-quinazolinone S,S-dioxide isomer 2] has an IC50 of 3.14 nM.
With `CCCCc1nc2ccc(C3=NN4CCCCC4C3)cc2c(=O)n1Cc1ccc(-c2ccccc2-c2nn[nH]n2)cc1` (centres unmarked) [2-butyl-6-(3,3a,4,5,6,7-hexahydropyrazolo[1,5-a]pyridin-2-yl)-3-[[2'-(1H-tetrazol-5-yl)[1,1'-biphenyl]-4-yl]methyl]-4(3H)-quinazolinone] the IC50 was 86.7 nM.
Work on `CCCCc1nc2ccc(COc3ccccc3)cc2c(=O)n1Cc1ccc(-c2ccccc2-c2nnn[nH]2)cc1` [2-butyl-6-(phenoxymethyl)-3-[[2'-(1H-tetrazol-5-yl)[1,1'-biphenyl]-4-yl]methyl]-4(3H)-quinazolinone] yielded an IC50 of 163 nM.
`CCCCc1nc2ccc(C3CC(c4ccc(C)cc4)=NO3)cc2c(=O)n1Cc1ccc(-c2ccccc2-c2nnn[nH]2)cc1` (centres unmarked) [2-butyl-6-[4,5-dihydro-3-(4-methylphenyl)-5-isoxazolyl]-3-[[2'-(1H-tetrazol-5-yl)[1,1'-biphenyl]-4-yl]methyl]-4(3H)-quinazolinone] was tested, and the IC50 was 126 nM.
In the case of `CCCCc1nc2ccc(COc3ccccn3)cc2c(=O)n1Cc1ccc(-c2ccccc2-c2nn[nH]n2)cc1` [2-butyl-6-[(2-pyridinyloxy)methyl]-3-[[2'-(1H-tetrazol-5-yl)[1,1'-biphenyl]-4-yl]methyl]-4(3H)-quinazolinone hydrochloride], the IC50 is reported as 17.2 nM.
`CCc1nc2c(C)cc(C)nc2n1Cc1ccc(-c2ccccc2-c2nnn[nH]2)cc1` [2-ethyl-5,7-dimethyl-3-[[2'-(1H-tetrazol-5-yl)[1,1-biphenyl]-4-yl]methyl]-3H-imidazo[4,5-b]pyridine, reference compound] gave an IC50 of 2.44 nM.
`CCCCc1nc2ccc(C3(C)CC(C(=O)OCC)=NO3)cc2c(=O)n1Cc1ccc(-c2ccccc2-c2nn[nH]n2)cc1` (centres unmarked) [5-[2-butyl-3,4-dihydro-4-oxo-3-[[2'-(1H-tetrazol-5-yl)[1,1'-biphenyl]-4-yl]methyl]-6-quinazolinyl]-4,5-dihyrdro-5-methyl-3-isoxazolecarboxylic acid ethyl ester] was tested, and the IC50 was 35.7 nM.
In the case of `CCCc1nc(C)n2[nH]c(=O)nc2c1Cc1ccc(-c2ccccc2-c2nnn[nH]2)cc1` [5-methyl-7-propyl-8-[(2'-(1H-tetrazol-5-yl)biphenyl-4-yl)methyl]-1,2,4-triazolo[1,5-c]pyrimidin-2(3H)-one, reference compound], the IC50 is reported as 5.63 nM.
Work on `CCCCc1nc2ccc([C@H]3C[C@@H](CO)ON3C)cc2c(=O)n1Cc1ccc(-c2ccccc2-c2nnn[nH]2)cc1` [(3R-cis)-2-butyl-6-[5-(hydroxymethyl)-2-methyl-3-isoxazolidinyl]-3-[[2'-(1H-tetrazol-5-yl)[1,1'-biphenyl-4-yl]methyl]-4(3H)-quinazolinone] yielded an IC50 of 8.2 nM.
Molecule `CCCCc1nc2ccc([C@@H]3C[C@@H](CO)ON3C)cc2c(=O)n1Cc1ccc(-c2ccccc2-c2nnn[nH]2)cc1` [(3S-trans)-2-butyl-6-[5-(hydroxymethyl)-2-methyl-3-isoxazolidinyl]-3-[[2'-(1H-tetrazol-5-yl)[1,1'-biphenyl]-4-yl]methyl]-4(3H)-quinazolinone] has an IC50 of 18.6 nM.

Same assay, conditions: read-out: Epididymal IC50 for displacement of 125I[Sar,Ile]AII binding; rat epididymal fat cell membranes (Table 8)
Molecule “2-butyl-3,5,7,8-tetrahydro-3-[[2'-(1H-tetrazol-5-yl)[1,1'-biphenyl]-4-yl]methyl]-pyrido[4,3-d]pyrimidin-6(4H)-carboxylic acid phenylmethyl ester” has an IC50 of 17.9 nM.
For “2-butyl-5,6,7,8-tetrahydro-6-(2-hydroxy-2-methyl-1-oxopropyl)-3-[[2'-(1H-tetrazol-5-yl)[1,1'-biphenyl]-4-yl]methyl]-4(3H)-quinazolinone”, the IC50 was 1.36 nM.
Work on `CCCCc1nc2ccc(C3(C)NN[C@H]4C(=O)N(C)C(=O)[C@H]43)cc2c(=O)n1Cc1ccc(-c2ccccc2-c2nn[nH]n2)cc1` (relative stereo) [(3aα,6aα)-3-[2-butyl-3,4-dihydro-4-oxo-3-[[2'-(1H-tetrazol-5-yl)[1,1'-biphenyl]-4-yl]methyl]-6-quinazolinyl]-2,3,3a,6a-tetrahydro-3,5-dimethylpyrrolo[3,4-c]pyrazole-4,6-(1H,5H)-dione] yielded an IC50 of 550 nM.
For `CCCCc1nc2ccc([C@@H]3C[C@@H]4[C@H](O3)ON3[C@H]4CCC3(C)C)cc2c(=O)n1Cc1ccc(-c2ccccc2-c2nn[nH]n2)cc1` [[2S-(2α,3aα,3bβ,8aα)]-2-butyl-6-(6,6'-dimethyloctahydrofuro[3,2-d]pyrrolo[1,2-d]isoxazol-2-yl)-3-[[2'-(1H-tetrazol-5-yl)[1,1'-biphenyl]-4-yl]methyl]-4(3H)-quinazolinone], the IC50 was 14.1 nM.
